Measured values taken from US20070275935A1, “Estratriene Derivatives” (priority 2003, published 2007).

Experiments:
Pulmonary fibroblasts = experiment: bFGF-induced proliferation of human pulmonary fibroblasts; format: cell-based; settings: for pFib - bFGF: inhibition of bFGF (300 pM)-induced proliferation, mean and SEM, minimum 3 experiments, 1 μM, * not defined; for effect on bFGF-induced increase in pulmonary fibroblast cell number, in words: concentration range of 1 to 1000 nM, bFGF 300 pM, 48 h
Method: Samples of parenchyma from human lung transplant recipients were dissected away from the pleura, chopped into fragments of less than 1 mm^2 and allowed to adhere to plastic culture dishes in a minimal volume of DMEM containing serum (10%) and antibiotics (as used for HASM culture). After the tissue fragments had adhered to the base of the dish additional medium was added. Medium was changed twice weekly until an explant culture formed, at which time the tissue fragments were removed and the cells were passaged in a 1:3 split ratio by exposure to trypsin weekly to produce pulmonary fibroblast cultures.
Pulmonary fibroblasts were cultured in DMEM, serum-deprived for 24 h, in the presence or absence of the test compounds, and then stimulated with 300 pM bFGF for 48 h before harvest and counting of viable cells. An increase pulmonary fibroblast cell number was prevented by 4NOM over the concentration range of 1 to 1000 nM.
A range of the disclosed compounds was subsequently examined using the above assay system, and the results are summarized in Column E of Table 4. […] The proliferation of parenchymal fibroblasts is important in the development of pulmonary fibrosis.

Estrogen Receptor (ER) = molecular target: T1, Estrogen Receptor (ER) (Rattus norvegicus, UniProt P06211); experiment: Estrogen receptor binding assay, 3H-estradiol displacement from rat uterine cytosol; settings: for IC50: read-out: ER-RLB pIC50 (converted); for ER affinity (pIC50 ^3H-E2 displacement): rat uterine cytosol, 0.2 nM [3H]-E2, tested up to 10 μM; for displacement of ^3H-Estradiol, in words: concentrations up to 10 μM
T1 construct: using rat uterine cytosol as a source of ER; from tissue; host or cells: rat uterus, cytosol fraction (30000 x g supernatant)
T1 sequence (P06211 1-600): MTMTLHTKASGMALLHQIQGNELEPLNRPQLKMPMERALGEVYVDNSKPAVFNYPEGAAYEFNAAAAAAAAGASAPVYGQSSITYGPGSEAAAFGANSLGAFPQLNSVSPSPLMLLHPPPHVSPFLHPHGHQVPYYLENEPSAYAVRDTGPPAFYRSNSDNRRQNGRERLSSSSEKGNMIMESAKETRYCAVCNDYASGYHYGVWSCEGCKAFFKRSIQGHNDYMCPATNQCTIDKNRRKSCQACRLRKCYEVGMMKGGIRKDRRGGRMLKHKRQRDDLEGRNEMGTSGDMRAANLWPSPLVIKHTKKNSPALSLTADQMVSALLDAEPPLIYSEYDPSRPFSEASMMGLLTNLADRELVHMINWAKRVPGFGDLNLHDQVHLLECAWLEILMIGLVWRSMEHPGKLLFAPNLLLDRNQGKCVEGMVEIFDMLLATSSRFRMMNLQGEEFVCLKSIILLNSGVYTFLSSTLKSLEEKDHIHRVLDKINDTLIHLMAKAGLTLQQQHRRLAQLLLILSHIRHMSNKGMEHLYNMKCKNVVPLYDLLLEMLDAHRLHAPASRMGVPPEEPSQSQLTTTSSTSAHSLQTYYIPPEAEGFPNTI
In short: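 Cytosol from Brown Norway rat uteri, homogenised in 10 mM Tris pH 7.4 with EDTA, glycerol and PMSF, spun at 30000×g, diluted to about 1 mg/ml protein.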

[1] = system: type II airway epithelial cell line, A549; experiment: Proliferation of A549 cells in response to 5% FCS; format: cell-based, human; settings: for IC50: Homo sapiens, A549, read-out: A549 PIC50 (converted); for IC50 / A549 PIC50: proliferation in response to 5% FCS, pIC50 of 4.00 = inactive; for effect on proliferation of A549 cells, in words (FIG. 2): 5% FCS, 48 h
[2] = 3H-estradiol displacement, cytosolic preparations of rat uterus, pIC50 of 4.00 = inactive

Row | SMILES | pFib - bFGF (Pulmonary fibroblasts) | IC50 (Estrogen Receptor (ER); [2]) [µM] | IC50 [1] [µM] | ER affinity (pIC50 ^3H-E2 displacement) (Estrogen Receptor (ER)) | effect on proliferation of A549 cells, in words (FIG. 2) ([1]; concentration not given) | A549 PIC50 [1] | effect on bFGF-induced increase in pulmonary fibroblast cell number, in words (Pulmonary fibroblasts) | pFib - bFGF (Pulmonary fibroblasts; listed as 4NOM) | ER-RLB pIC50 (Estrogen Receptor (ER); [2]) | displacement of ^3H-Estradiol, in words (Estrogen Receptor (ER)) | effect on proliferation of A549 cells, in words (FIG. 2) ([1]; concentrations below 3 μM)
1 | COc1cc2c(cc1O)/C(=N/OCc1cc(F)cc(F)c1)C[C@@H]1[C@@H]2CC[C@]2(C)[C@@H](O)CC[C@@H]12 [CP-DM-4-35, 6-(3,5-difluorobenzyloxy)imino-2-methoxyestradiol] | 22 ± 14 | 5.25 | 3.16 |  |  |  |  |  |  |  | 
2 | COc1cc2c(cc1O)CC[C@@H]1[C@@H]2CC[C@]2(C)[C@@H](O)CC[C@@H]12 [2-methoxyestradiol, reference compound] | 62 ± 20* |  |  | 6.8 | effective inhibitor | 6.00 |  |  |  |  | 
3 | COc1cc2c(cc1O)C(=NOCc1ccc([N+](=O)[O-])cc1)C[C@@H]1[C@@H]2CC[C@]2(C)C(=NO)CC[C@@H]12 [CP-DM-3-91, 2-methoxy-6-(4-nitrobenzyloxy)iminoestrone-17-oxime] | 49 ± 14* |  |  | <5.0 |  | 4.99 | prevented | significant inhibitory activity | 4.26 | little or no detectable displacement | 
4 | COc1cc2c(cc1O)/C(=N/OCc1ccc(SC(F)(F)F)cc1)C[C@@H]1[C@@H]2CC[C@]2(C)[C@@H](O)CC[C@@H]12 [CP-DM-4-65, 2-methoxy-6-(4-trifluoromethylthiobenzyloxy)iminoestradiol] | 32 ± 23 | 0.646 | 3.16 |  |  |  |  |  |  |  | 
5 | C[C@]12CC[C@@H]3c4ccc(O)cc4CC[C@H]3[C@@H]1CC/C2=N\OCc1cccc([N+](=O)[O-])c1 [CP-DM-3-102, estrone-17-(3-nitrobenzyl)oxime] | 96 ± 4* | 2.4 | 12.6 |  |  |  |  |  |  |  | 
6 | COc1cc2c(cc1O)C(=NOCc1ccc([N+](=O)[O-])cc1)C[C@@H]1[C@@H]2CC[C@]2(C)[C@@H](O)CC[C@@H]12 [CP-DM-2-11-7, 2-methoxy-6-(4-nitrobenzyloxy)iminoestradiol] | 63 ± 15* |  |  | <5.0 |  | 4.89 | significantly reduced the proliferative response |  |  | little or no detectable displacement | no detectable effect
